In general, IC50 refers to the point on the concentration scale where inhibition reaches its midpoint.

SMILES strings stand for the structures.

The test system of this assay is SREBP pathway. Description: SREBP luciferase reporter gene system (SRE-luciferase assay). The assay is classed as cell-based, human. Particulars: Huh-7/SRE-luc cells, sterol-deficient medium, 0.01-10 µM. A digest of the protocol:
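Huh-7 cells stably carrying LDLR promoter-luciferase plus GFP were treated 16 h in sterol-deficient medium (5% lipoprotein-deficient serum, 2 µM lovastatin, 10 µM mevalonic acid) at 0.01–10 µM. Luciferase/GFP ratio measured as pathway activity; inhibition versus DMSO fitted to a four-parameter model for IC50.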

Regarding `C[C@H](CCCC(O)c1ccc2c(c1)OC(F)(F)O2)[C@H]1CC[C@H]2[C@H]3[C@H](CC[C@]12C)[C@@]1(C)CC[C@H](O)[C@H](O)[C@@H]1CC3(F)F` (single isomer, unassigned) [Compound 259, (1R,3aS,3bS,5aR,6R,7S,9aR,9bS,11aR)-1-[(2R,6R)-6-(2,2-difluorobenzo[d][1,3]dioxol-5-yl)-6-hydroxyhexan-2-yl]-4,4-difluoro-9a,11a-dimethylhexadecahydro-1H-cyclopenta[1,2-a]phenanthrene-6,7-diol or (1R,3aS,3bS,5aR,6R,7S,9aR,9bS,11aR)-1-[(2R,6S)-6-(2,2-difluorobenzo[d][1,3]dioxol-5-yl)-6-hydroxyhexan-2-yl]-4,4-difluoro-9a,11a-dimethylhexadecahydro-1H-cyclopenta[1,2-a]phenanthrene-6,7-diol], the IC50 (16 hours) stood at 0.249 µM. On to `C[C@H](CCCC(O)c1ncco1)[C@H]1CC[C@H]2[C@H]3[C@H](CC[C@]12C)[C@@]1(C)CC[C@H](O)[C@H](O)[C@@H]1CC3(F)F` (stereo partly drawn) [Compound 99, (1R,3aS,3bS,5aR,6R,7S,9aR,9bS,11aR)-4,4-difluoro-1-[(2R)-6-hydroxy-6-(1,3-oxazol-2-yl)hexan-2-yl]-9a,11a-dimethylhexadecahydro-1H-cyclopenta[1,2-a]phenanthrene-6,7-diol], for which the IC50 (Homo sapiens, Huh-7, 16 h) amounted to 0.243 µM. Same read-out and setting: for `COc1ccnc(F)c1C(O)CCC[C@@H](C)[C@H]1CC[C@H]2[C@H]3[C@H](CC[C@]12C)[C@@]1(C)CC[C@H](O)[C@H](O)[C@@H]1CC3(F)F` (stereo partly drawn) [Compound 149, (1R,3aS,3bS,5aR,6R,7S,9aR,9bS,11aR)-4,4-difluoro-1-[(2R)-6-(2-fluoro-4-methoxypyridin-3-yl)-6-hydroxyhexan-2-yl]-9a,11a-dimethylhexadecahydro-1H-cyclopenta[1,2-a]phenanthrene-6,7-diol] the value was 0.14 µM. Still for that read-out and setting: for `C[C@H](CCC[C@H](O)c1nc2ccccc2n1C)[C@H]1CC[C@H]2[C@H]3[C@H](CC[C@]12C)[C@@]1(C)CC[C@H](O)[C@H](O)[C@@H]1CC3(F)F` [Compound 306, (1R,3aS,3bS,5aR,6R,7S,9aR,9bS,11aR)-4,4-difluoro-1-[(2R,6S)-6-hydroxy-6-(1-methylbenzo[d]imidazol-2-yl)hexan-2-yl]-9a,11a-dimethylhexadecahydro-1H-cyclopenta[1,2-a]phenanthrene-6,7-diol] the value was 0.121 µM; for `C[C@H](CCC[C@H](O)c1ccccn1)[C@H]1CC[C@H]2[C@H]3[C@H](CC[C@]12C)[C@@]1(C)CC[C@H](O)[C@H](O)[C@@H]1CC3(F)F` [Compound 91, (1R,3aS,3bS,5aR,6R,7S,9aR,9bS,11aR)-4,4-difluoro-1-[(2R,6S)-6-hydroxy-6-(pyridin-2-yl)hexan-2-yl]-9a,11a-dimethylhexadecahydro-1H-cyclopenta[1,2-a]phenanthrene-6,7-diol], 0.378 µM. The same measure, in the same setting: the same measure for `C[C@H](CCCC(O)c1cncc2c1cnn2C)[C@H]1CC[C@H]2[C@H]3[C@H](CC[C@]12C)[C@@]1(C)CC[C@H](O)[C@H](O)[C@@H]1CC3(F)F` (stereo partly drawn) [Compound 275, (1R,3aS,3bS,5aR,6R,7 S,9aR,9bS,11aR)-4,4-Difluoro-1-[(2R)-6-hydroxy-6-(1-methylpyrazolo[3,4-c]pyridin-4-yl)hexan-2-yl]-9a,11a-dimethylhexadecahyd ro-1H-cyclopenta[1,2-a]phenanthrene-6,7-diol]: 0.26 µM. `C[C@H](CCCC(O)c1cccc2nnn(C)c12)[C@H]1CC[C@H]2[C@H]3[C@H](CC[C@]12C)[C@@]1(C)CC[C@H](O)[C@H](O)[C@@H]1CC3(F)F` (single isomer, unassigned) [Compound 278, (1R,3aS,3bS,5aR,6R,7S,9aR,9bS,11aR)-4,4-difluoro-1-[(2R,6R)-6-hydroxy-6-(3-methylbenzo[d][1,2,3]triazol-4-yl)hexan-2-yl]-9a,11a-dimethylhexadecahydro-1H-cyclopenta[1,2-a]phenanthrene-6,7-diol or (1R,3aS,3bS,5aR,6R,7S,9aR,9bS,11aR)-4,4-Difluoro-1-[(2R,6S)-6-hydroxy-6-(3-methylbenzo[d][1,2,3]triazol-4-yl)hexan-2-yl]-9a,11a-dimethylhexadecahydro-1H-cyclopenta[1,2-a]phenanthrene-6,7-diol]: the IC50 (16 hours) worked out at 0.189 µM. Turning to `C[C@H](CCCC(O)c1ccc(F)nc1F)[C@H]1CC[C@H]2C3=C(F)C[C@H]4[C@@H](O)[C@@H](O)CC[C@]4(C)[C@H]3CC[C@]12C` (stereo partly drawn) [Compound 147, (1R,3aR,5aR,6R,7S,9aR,9bR,11aR)-1-[(2R)-6-(2,6-difluoropyridin-3-yl)-6-hydroxyhexan-2-yl]-4-fluoro-9a,11a-dimethyl-2,3,3a,5,5a,6,7,8,9,9a,9b,10,11,11a-tetradecahydro-1H-cyclopenta[1,2-a]phenanthrene-6,7-diol], the IC50 (Homo sapiens, Huh-7, 16 h) stood at 0.19 µM. The same measure, in the same setting: the same measure for `COc1cc(F)cc(F)c1[C@@H](O)CCC[C@@H](C)[C@H]1CC[C@H]2C3=C(F)C[C@H]4[C@@H](O)[C@@H](O)CC[C@]4(C)[C@H]3CC[C@]12C` (single isomer, unassigned) [Compound 202]: 0.411 µM; for `COc1ncc(F)cc1[C@@H](O)CCC[C@@H](C)[C@H]1CC[C@H]2[C@H]3[C@H](CC[C@]12C)[C@@]1(C)CC[C@H](O)[C@H](O)[C@@H]1CC3(F)F` (single isomer, unassigned) [Compound 228]: 1.42 µM; for `C[C@H](CCCC(O)c1cccc2cn[nH]c12)[C@H]1CC[C@H]2C3=C(F)C[C@H]4[C@@H](O)[C@@H](O)CC[C@]4(C)[C@H]3CC[C@]12C` (stereo partly drawn) [Compound 270, (1R,3aR,5aR,6R,7S,9aR,9bR,11aR)-4-fluoro-1-[(2R)-6-hydroxy-6-(1H-indazol-7-yl)hexan-2-yl]-9a,11a-dimethyl-2,3,3a,5,5a,6,7,8,9,9a,9b,10,11,11a-tetradecahydro-1H-cyclopenta[1,2-a]phenanthrene-6,7-diol]: 0.259 µM.

For `COc1cc(F)cc(F)c1[C@H](O)CCC[C@@H](C)[C@H]1CC[C@H]2C3=C(F)C[C@H]4[C@@H](O)[C@@H](O)CC[C@]4(C)[C@H]3CC[C@]12C` (single isomer, unassigned) [Compound 203], the IC50 (Homo sapiens, Huh-7, 16 h) was 0.174 µM.

Consider `COc1cccc(F)c1[C@H](O)CCC[C@@H](C)[C@H]1CC[C@H]2[C@H]3[C@H](CC[C@]12C)[C@@]1(C)CC[C@H](O)C[C@@H]1CC3(F)F` (single isomer, unassigned) [Compound 315], for which the IC50 (Homo sapiens, Huh-7, 16 h) came out at 0.125 µM.

In the case of `COc1cc(Cl)ccc1[C@@H](O)CCC[C@@H](C)[C@H]1CC[C@H]2C3=C(F)C[C@H]4[C@@H](O)[C@@H](O)CC[C@]4(C)[C@H]3CC[C@]12C` [Compound 111, (1R,3aR,5aR,6R,7S,9aR,9bR,11aR)-1-[(2R,6S)-6-(4-chloro-2-methoxyphenyl)-6-hydroxyhexan-2-yl]-4-fluoro-9a,11a-dimethyl-2,3,3a,5,5a,6,7,8,9,9a,9b,10,11,11a-tetradecahydro-1H-cyclopenta[1,2-a]phenanthrene-6,7-diol], under “Homo sapiens, Huh-7, 16 h”, the IC50 was 1.48 µM. In the case of `COc1ccc(F)c(C(O)CCC[C@@H](C)[C@H]2CC[C@H]3[C@H]4[C@H](CC[C@]23C)[C@@]2(C)CC[C@H](O)[C@H](O)[C@@H]2CC4(F)F)c1` (single isomer, unassigned) [Compound 167, (1R,3aS,3bS,5aR,6R,7S,9aR,9bS,11aR)-4,4-difluoro-1-[(2R,6R)-6-(2-fluoro-5-methoxyphenyl)-6-hydroxyhexan-2-yl]-9a,11a-dimethylhexadecahydro-1H-cyclopenta[1,2-a]phenanthrene-6,7-diol or (1R,3aS,3bS,5aR,5aR,6R,7S,9aR,9bS,11aR) -4,4-difluoro-1-[(2R,6S)-6-(2-fluoro-5-methoxyphenyl)-6-hydroxyhexan-2-yl]-9a,11a-dimethylhexadecahydro-1H-cyclopenta[1,2-a]phenanthrene-6,7-diol], the IC50 (16 hours) amounted to 0.88 µM. Take `C[C@H](CCCC(O)c1c(F)ccnc1F)[C@H]1CC[C@H]2C3=C(F)C[C@H]4[C@@H](O)[C@@H](O)CC[C@]4(C)[C@H]3CC[C@]12C` (stereo partly drawn) [Compound 145, (1R,3aR,5aR,6R,7S,9aR,9bR,11aR)-1-[(2R)-6-(2,4-difluoropyridin-3-yl)-6-hydroxyhexan-2-yl]-4-fluoro-9a,11a-dimethyl-2,3,3a,5,5a,6,7,8,9,9a,9b,10,11,11a-tetradecahydro-1H-cyclopenta[1,2-a]phenanthrene-6,7-diol]: the IC50 (Homo sapiens, Huh-7, 16 h) is 0.35 µM. On the same count and under the same terms, for `COc1nc(F)ccc1[C@](C)(O)CCC[C@@H](C)[C@H]1CC[C@H]2[C@H]3[C@H](CC[C@]12C)[C@@]1(C)CC[C@H](O)[C@H](O)[C@@H]1CC3(F)F` [Compound 310, (1R,3aS,3bS,5aR,6R,7S,9aR,9bS,11aR)-4,4-difluoro-1-[(2R,6R)-6-(6-fluoro-2-methoxypyridin-3-yl)-6-hydroxyheptan-2-yl]-9a,11a-dimethylhexadecahydro-1H-cyclopenta[1,2-a]phenanthrene-6,7-diol] the value was 0.209 µM. Turning to `C[C@H](CCCC(O)c1c2ccccc2nn1C)[C@H]1CC[C@H]2[C@H]3[C@H](CC[C@]12C)[C@@]1(C)CC[C@H](O)[C@H](O)[C@@H]1CC3(F)F` (stereo partly drawn) [Compound 325, (1R,3aS,3bS,5aR,6R,7 S,9aR,9bS,11aR)-4,4-Difluoro-1-[(2R)-6-hydroxy-6-(2-methylindazol-3-yl)hexan-2-yl]-9a,11a-dimethylhexadecahydro-1H-cyclopenta[1,2-a]phenanthrene-6,7-diol], the IC50 (Homo sapiens, Huh-7, 16 h) turned out to be 0.148 µM. Same read-out and setting: for `COc1cc(OC)c([C@H](O)CCC[C@@H](C)[C@H]2CC[C@H]3[C@H]4[C@H](CC[C@]23C)[C@@]2(C)CC[C@H](O)[C@H](O)[C@@H]2CC4(F)F)c(F)n1` (single isomer, unassigned) [Compound 235] the value was 0.115 µM. As to `COc1cccc(F)c1[C@H](F)CCC[C@@H](C)[C@H]1CC[C@H]2[C@H]3[C@H](CC[C@]12C)[C@@]1(C)CC[C@H](O)[C@H](O)[C@@H]1CC3(F)F` (single isomer, unassigned) [Compound 216], the IC50 (Homo sapiens, Huh-7, 16 h) was 2.65 µM.

The values are drawn from patent publication EP4752152A1, “STEROID COMPOUND, AND PREPARATION METHOD THEREFOR AND USE THEREOF” (Cholesgen (Shanghai) Co.Ltd., priority 2023, dated 2025).
